Test results reported in ChEMBL document CHEMBL1145463, “Clonal spread of mef-positive macrolide-resistant Streptococcus pneumoniae isolates causing invasive disease in adults in Germany” (2007).
Converted amounts (≈) assume the structure as drawn.

Test system: Streptococcus pneumoniae
Assay: Antibacterial activity against telithromycin-susceptible Streptococcus pneumoniae
Assay type: functional

`CC[C@H]1OC(=O)[C@H](C)C(=O)[C@H](C)[C@@H](O[C@@H]2O[C@H](C)C[C@H](N(C)C)[C@H]2O)[C@](C)(OC)C[C@@H](C)C(=O)[C@H](C)[C@H]2N(CCCCn3cnc(-c4cccnc4)c3)C(=O)O[C@]12C` [TELITHROMYCIN] was tested. Which MIC90 did it give?
The MIC90 was 0.12 µg/mL (≈ 0.148 µM).
